We go through three molecules from patent US10273227B2, “C5-anilinoquinazoline compounds and their use in treating cancer” (AstraZeneca AB, priority 2017, dated 2019).

Where only a bound is given, the exact number is not on record here.

What all share (type): cell-based
The target in test [1] is T1, Ba/F3-D816H (KIT exon11 deletion (557-558) and secondary mutation D816H) (Homo sapiens, UniProt P10721, D816H/DEL557-558).
T1 construct: expressed in transfected cells; host or cells: Ba/F3 cells, lentiviral transduction (pLVX-IRES Puro)
T1 sequence (P10721 with tags, fused parts or gaps DEL557-558/D816H): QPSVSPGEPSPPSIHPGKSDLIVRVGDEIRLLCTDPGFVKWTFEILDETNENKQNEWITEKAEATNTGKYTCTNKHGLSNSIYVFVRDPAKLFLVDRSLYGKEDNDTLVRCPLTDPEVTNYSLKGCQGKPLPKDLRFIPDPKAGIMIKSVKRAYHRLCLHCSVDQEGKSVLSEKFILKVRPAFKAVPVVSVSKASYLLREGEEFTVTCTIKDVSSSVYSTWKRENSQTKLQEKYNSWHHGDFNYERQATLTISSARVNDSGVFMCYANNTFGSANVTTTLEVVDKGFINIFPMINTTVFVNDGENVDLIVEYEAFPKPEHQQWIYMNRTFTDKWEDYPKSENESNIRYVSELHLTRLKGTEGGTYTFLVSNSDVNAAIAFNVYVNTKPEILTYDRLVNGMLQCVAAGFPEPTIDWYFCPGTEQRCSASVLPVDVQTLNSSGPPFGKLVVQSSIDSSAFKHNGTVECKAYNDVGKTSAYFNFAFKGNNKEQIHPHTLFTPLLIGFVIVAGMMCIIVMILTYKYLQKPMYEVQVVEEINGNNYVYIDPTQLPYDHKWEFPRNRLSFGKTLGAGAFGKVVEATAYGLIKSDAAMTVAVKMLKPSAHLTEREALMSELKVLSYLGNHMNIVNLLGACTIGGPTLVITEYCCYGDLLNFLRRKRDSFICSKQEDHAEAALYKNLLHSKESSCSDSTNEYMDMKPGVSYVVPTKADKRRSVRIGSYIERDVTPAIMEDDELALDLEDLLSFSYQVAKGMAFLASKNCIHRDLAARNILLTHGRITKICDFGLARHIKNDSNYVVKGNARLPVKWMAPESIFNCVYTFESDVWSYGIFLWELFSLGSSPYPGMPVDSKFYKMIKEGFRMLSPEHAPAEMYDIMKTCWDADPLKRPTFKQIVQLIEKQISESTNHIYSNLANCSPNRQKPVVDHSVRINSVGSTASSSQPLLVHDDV
Put plainly: MTS viability assay, Ba/F3 expressing KIT exon11 deletion (557-558) and D816H. The settings on record: 72 h incubation, top concentration 10 uM. On the procedure: (§1) Exponentially grown Ba/F3 cells (1.5×10^6 cells in 2 ml medium) were infected with 2 ml of viral suspension in a 6-well plate in the presence of mIL-3 (10 ng/ml) and polybrene (4 μg/ml) (Sigma Aldrich, St. Louis, Mo.) and incubated for 24 h. After 24 h, the cells were centrifuged and the viral supernatant was discarded. The cells were then re-suspended in fresh medium and allowed to recover for another day. The following day, the cells were seeded in complete medium without murine IL-3. After a week or two, when cells started proliferating, a selection was carried out by gradually increasing the puromycin concentration to 0.5 ug/ml. Once the cells were growing exponentially in puromycin, batches of cells were frozen down for banking.
(§2) The impact of KIT inhibitors on the viability of Ba/F3 expressing KIT mutations was determined using an MTS assay, which is a colorimetric sensitive quantification of viable cells in proliferation and cytotoxicity assay. In the MTS assay […] in the presence of phenazine methosulfate (PMS) was used. The mitochondrial reductase forms a formazan which absorbs at 490 nm. Cells in exponential growth phase were added to 384-well plates containing pre-dispensed compounds (top concentration 10 uM, 10-point curve). The cells were incubated for 72 h at 37° C. and 5% CO2. After 72 h, MTS reagent was added to the plates and incubated an additional 2 h at 37° C. before measuring the absorbance at 490 nm on a Tecan microplate reader using Magellan Software (Tecan Trading AG, Switzerland).
(§3) The absorbances were normalized as follows: (Read-Day0 control)/(Day3 control−Day0 control)*100. The GI50 values were generated using Genedata Screener software (Genedata Lexington, Mass.). A non-linear regression with constraints for top and bottom between 100 and −100 and no constraint on the Hill coefficient was used to generate GI50 values. The GI50 values reported below are the calculated mean result of at least 3 biological replicates across all the cell lines tested.

Test [2] addresses T2, Ba/F3-V654A (KIT exon11 deletion (557-558) and secondary mutation V654A) (Homo sapiens, UniProt P10721, DEL557-558/V654A).
T2 construct: expressed in transfected cells; host or cells: Ba/F3 cells, lentiviral transduction (pLVX-IRES Puro)
Briefly: MTS viability assay, Ba/F3 expressing KIT exon11 deletion (557-558) and V654A. The settings on record: 72 h incubation, top concentration 10 uM. On the procedure:
as §1, §2, §3

For test [3], the system named is TEL-KDR (KDR (K790-V1356) fused to the C-terminus of Tel). Put plainly: MTS viability assay, Ba/F3 expressing Tel-KDR. To be noted: 72 h incubation, top concentration 10 uM. On the procedure:
Tel-KDR myc was cloned into pBCS2004, a retroviral vector, wherein KDR (K790-V1356) is fused to the C-terminus of Tel. Retroviral particles were generated in HEK293T cells. The Tel-KDR plasmid was co-transfected with helper viruses (gag-Pol and VSV-G) into HEK293T cells using calcium phosphate and the virus was harvested 72 h after transfection.
as §1, §2, §3

The subject of another test is Ba/F3-Parental. Briefly: MTS viability assay, Ba/F3 parental cells. To be noted: Mus musculus, BaF3, 72 h incubation, top concentration 10 uM. On the procedure: as §1, §2, §3
In test [4] the target is T3, Ba/F3-T670I (KIT exon11 deletion (557-558) and secondary mutation T670I) (Homo sapiens, UniProt P10721, DEL557-558/T670I).
T3 construct: expressed in transfected cells; host or cells: Ba/F3 cells, lentiviral transduction (pLVX-IRES Puro)
T3 sequence (P10721 with tags, fused parts or gaps DEL557-558/T670I): as the sequence (P10721 with tags, fused parts or gaps DEL557-558/D816H) above, with T643I, H789D counted along it
Put plainly: MTS viability assay, Ba/F3 expressing KIT exon11 deletion (557-558) and T670I. To be noted: 72 h incubation, top concentration 10 uM. On the procedure:
as §1, §2, §3

T2 sequence (P10721 with tags, fused parts or gaps DEL557-558/V654A): as the sequence (P10721 with tags, fused parts or gaps DEL557-558/D816H) above, with V627A, H789D counted along it

In the case of `COCCOc1cc(OC)c2c(Nc3ccc(NC(=O)Cn4cc(C(C)C)nn4)cc3)ncnc2c1` [Example 20, N-(4-{[5-Methoxy-7-(2-methoxyethoxy)quinazolin-4-yl]amino}phenyl)-2-[4-(propan-2-yl)-1H-1,2,3-triazol-1-yl]acetamide], the “Ba/F3-D816H GI50” value in test [1] amounted to 30 nM. Further, the “Ba/F3-V654A GI50” value in test [2] amounted to 8 nM. Besides, the GI50 in test [3] turned out to be 3390 nM; in the test on Ba/F3-Parental it was 9960 nM. In addition, the “Ba/F3-T670I GI50” value in test [4] worked out at 53 nM.

With `COc1cc(F)c2c(Nc3ccc(NC(=O)Cn4cc(C(C)C)nn4)cc3)ncnc2c1` [Example 21, N-{4-[(5-Fluoro-7-methoxyquinazolin-4-yl)amino]phenyl}-2-[4-(propan-2-yl)-1H-1,2,3-triazol-1-yl]acetamide], in test [1], the “Ba/F3-D816H GI50” value came out at 25 nM. In test [2], the “Ba/F3-V654A GI50” value stood at 2 nM. The GI50 (in test [3]; in the test with Ba/F3-Parental) was no less than 10000 nM each time. The “Ba/F3-T670I GI50” value in test [4] stood at 68 nM.

As to `COc1cc(OC)c2c(Nc3ccc(NC(=O)Cn4cc(C(C)C)nn4)cc3)ncnc2c1` [Example 22, N-{4-[(5,7-Dimethoxyquinazolin-4-yl)amino]phenyl}-2-[4-(propan-2-yl)-1H-1,2,3-triazol-1-yl]acetamide], the “Ba/F3-D816H GI50” value in test [1] was determined as 48 nM. Besides, the “Ba/F3-V654A GI50” value in test [2] worked out at 3 nM. Besides, the GI50 in test [3] is 5350 nM; in the test on Ba/F3-Parental it was no less than 10000 nM. For the same molecule, the “Ba/F3-T670I GI50” value in test [4] was 106 nM.
